Tested on: MV-4-11 cells
Experiment: Gene expression microarray analysis (Affymetrix PrimeView) and GSEA
Format: cell-based, human
Set-up: RFU PODN (11730768_x_at) / Fold change /veh PODN (11730768_x_at) / RFU LINC00158 (11744669_a_at) / Fold change /veh LINC00158 (11744669_a_at) / RFU DUSP10 (11751237_a_at) / Fold change /veh DUSP10 (11751237_a_at) / RFU ID3 (11757404_x_at) / Fold change /veh ID3 (11757404_x_at) / RFU PLEKHG5 (11737974_s_at) / Fold change /veh PLEKHG5 (11737974_s_at) / RFU LRRC4B (11730491_at) / Fold change /veh LRRC4B (11730491_at) / RFU GIMAP4 (11747438_a_at) / Fold change /veh GIMAP4 (11747438_a_at) / RFU KRT8 (11758183_x_at) / Fold change /veh KRT8 (11758183_x_at) / RFU CNN1 (11734310_a_at) / Fold change /veh CNN1 (11734310_a_at) / RFU VPS37D (11726825_at) / Fold change /veh VPS37D (11726825_at) / RFU C10orf10 (11716522_x_at) / Fold change /veh C10orf10 (11716522_x_at) / RFU KIR2DL2 /// KIR2DL4 /// KIR2DL5A /// KIR2DL5B /// KIR2DS1 /// KIR2DS2 /// KIR2DS3 /// KIR2DS4 /// KIR3DL3 /// KIR3DL3 /// KIR3DS1 (11738374_at) / Fold change /veh KIR2DL2 /// KIR2DL4 /// KIR2DL5A /// KIR2DL5B /// KIR2DS1 /// KIR2DS2 /// KIR2DS3 /// KIR2DS4 /// KIR3DL3 /// KIR3DL3 /// KIR3DS1 (11738374_at) / RFU C1QL1 (11718748_at) / Fold change /veh C1QL1 (11718748_at) / RFU TMPRSS4 (11747572_a_at) / Fold change /veh TMPRSS4 (11747572_a_at) / RFU HAMP (11756126_x_at) / Fold change /veh HAMP (11756126_x_at) / RFU RNFT2 (11725882_a_at) / Fold change /veh RNFT2 (11725882_a_at) / RFU NR4A2 (11747474_a_at) / Fold change /veh NR4A2 (11747474_a_at) / RFU ABCC12 (11746883_a_at) / Fold change /veh ABCC12 (11746883_a_at) / RFU TMEM136 (11760407_x_at) / Fold change /veh TMEM136 (11760407_x_at) / RFU CLDN22 /// WWC2 (11732394_at) / Fold change /veh CLDN22 /// WWC2 (11732394_at) / RFU HLA-DPB1 (11760878_x_at) / Fold change /veh HLA-DPB1 (11760878_x_at) / RFU SPINT1 (11716480_a_at) / Fold change /veh SPINT1 (11716480_a_at) / RFU GAP43 (11754022_s_at) / Fold change /veh GAP43 (11754022_s_at) / RFU A4GNT (11735810_at) / Fold change /veh A4GNT (11735810_at) / RFU PRB3 (11715151_x_at) / Fold change /veh PRB3 (11715151_x_at) / RFU TUBB4B (11761932_at) / Fold change /veh TUBB4B (11761932_at) / RFU CAPN14 (11732068_a_at) / Fold change /veh CAPN14 (11732068_a_at) / RFU TMCC2 (11721928_a_at) / Fold change /veh TMCC2 (11721928_a_at) / RFU IRGQ (11745062_a_at) / Fold change /veh IRGQ (11745062_a_at) / RFU FAM174B (11720279_a_at) / Fold change /veh FAM174B (11720279_a_at) / RFU TMPRSS4 (11748680_a_at) / Fold change /veh TMPRSS4 (11748680_a_at) / RFU FAM212B (11763350_a_at) / Fold change /veh FAM212B (11763350_a_at) / RFU PLEKHG5 (11743358_a_at) / Fold change /veh PLEKHG5 (11743358_a_at) / RFU ZSCAN30 (11745921_a_at) / Fold change /veh ZSCAN30 (11745921_a_at) / RFU CMKLR1 (11741424_a_at) / Fold change /veh CMKLR1 (11741424_a_at) / RFU LOC101060620 /// MAPK8IP1 (11723275_at) / Fold change /veh LOC101060620 /// MAPK8IP1 (11723275_at) / RFU SPTSSB (11747773_x_at) / Fold change /veh SPTSSB (11747773_x_at) / RFU PRSS12 (11739890_at) / Fold change /veh PRSS12 (11739890_at) / RFU BIN1 (11741810_x_at) / Fold change /veh BIN1 (11741810_x_at) / RFU WNT11 (11732464_a_at) / Fold change /veh WNT11 (11732464_a_at) / RFU C10orf10 (11716521_a_at) / Fold change /veh C10orf10 (11716521_a_at) / RFU C5orf56 (11738089_at) / Fold change /veh C5orf56 (11738089_at) / RFU CYB561 (11721691_x_at) / Fold change /veh CYB561 (11721691_x_at) / RFU ANKRD19P (11752326_a_at) / Fold change /veh ANKRD19P (11752326_a_at) / RFU OR2T12 /// OR2T33 /// OR2T8 (11738714_s_at) / Fold change /veh OR2T12 /// OR2T33 /// OR2T8 (11738714_s_at) / RFU VCAN (11748164_a_at) / Fold change /veh VCAN (11748164_a_at) / RFU JSRP1 (11732532_at) / Fold change /veh JSRP1 (11732532_at) / RFU KRTAP10-11 (11738290_x_at) / Fold change /veh KRTAP10-11 (11738290_x_at) / RFU MYO3A (11730013_a_at) / Fold change /veh MYO3A (11730013_a_at) / RFU EBF3 (11725865_a_at) / Fold change /veh EBF3 (11725865_a_at) / RFU CAMK2N1 (11719241_x_at) / Fold change /veh CAMK2N1 (11719241_x_at) / RFU C5orf56 (11738088_a_at) / Fold change /veh C5orf56 (11738088_a_at) / RFU OLFML3 (11715873_a_at) / Fold change /veh OLFML3 (11715873_a_at) / RFU LOC100653217 /// NTM (11731650_a_at) / Fold change /veh LOC100653217 /// NTM (11731650_a_at) / RFU MAPK11 (11762145_a_at) / Fold change /veh MAPK11 (11762145_a_at) / RFU FIZ1 (11724087_x_at) / Fold change /veh FIZ1 (11724087_x_at) / RFU OASL (11726364_x_at) / Fold change /veh OASL (11726364_x_at) / RFU SOX15 (11748057_x_at) / Fold change /veh SOX15 (11748057_x_at) / RFU CD79A (11719716_a_at) / Fold change /veh CD79A (11719716_a_at) / RFU HIST1H1D (11736915_at) / Fold change /veh HIST1H1D (11736915_at) / RFU CASKIN2 (11723855_a_at) / Fold change /veh CASKIN2 (11723855_a_at) / RFU LOC730098 (11760151_x_at) / Fold change /veh LOC730098 (11760151_x_at) / RFU OR4N2 (11742367_at) / Fold change /veh OR4N2 (11742367_at) / RFU PRRT2 (11749266_a_at) / Fold change /veh PRRT2 (11749266_a_at) / RFU SNX32 (11753110_a_at) / Fold change /veh SNX32 (11753110_a_at) / RFU CDHR5 (11726645_a_at) / Fold change /veh CDHR5 (11726645_a_at) / RFU RCAN1 (11760418_a_at) / Fold change /veh RCAN1 (11760418_a_at) / RFU FAM167A (11723789_a_at) / Fold change /veh FAM167A (11723789_a_at) / RFU FAM26E (11764081_at) / Fold change /veh FAM26E (11764081_at) / RFU ISYNA1 (11749810_s_at) / Fold change /veh ISYNA1 (11749810_s_at) / RFU ACY1 (11761880_at) / Fold change /veh ACY1 (11761880_at) / RFU 11764098_at / Fold change /veh 11764098_at / RFU SAMD14 (11745864_x_at) / Fold change /veh SAMD14 (11745864_x_at) / RFU NPB (11741838_a_at) / Fold change /veh NPB (11741838_a_at) / RFU TMPRSS6 (11731388_a_at) / Fold change /veh TMPRSS6 (11731388_a_at) / RFU KRTAP10-2 (11738614_at) / Fold change /veh KRTAP10-2 (11738614_at) / RFU ARHGAP8 /// PRR5-ARHGAP8 (11727945_x_at) / Fold change /veh ARHGAP8 /// PRR5-ARHGAP8 (11727945_x_at) / RFU KRTAP5-7 /// NADSYN1 (11734609_at) / Fold change /veh KRTAP5-7 /// NADSYN1 (11734609_at) / RFU RASL12 (11751679_a_at) / Fold change /veh RASL12 (11751679_a_at) / RFU CDKN2B (11736163_a_at) / Fold change /veh CDKN2B (11736163_a_at) / RFU PRF1 (11729649_at) / Fold change /veh PRF1 (11729649_at) / RFU, ZNF638 /// ZNF638-IT1 / Fold change vs veh, ZNF638 /// ZNF638-IT1 / RFU, PANK3 / Fold change vs veh, PANK3 / RFU, SH3YL1 / Fold change vs veh, SH3YL1 / RFU, ZEB2 / Fold change vs veh, ZEB2 / RFU, NRIP1 / Fold change vs veh, NRIP1 / RFU, PTTG1IP / Fold change vs veh, PTTG1IP / RFU, CAPN2 / Fold change vs veh, CAPN2 / RFU, MED14 / Fold change vs veh, MED14 / RFU, SNORA58 / Fold change vs veh, SNORA58 / RFU, C1orf63 / Fold change vs veh, C1orf63 / RFU, LRRFIP1 / Fold change vs veh, LRRFIP1 / RFU, NDUFAF7 / Fold change vs veh, NDUFAF7 / RFU, SLC12A2 / Fold change vs veh, SLC12A2 / RFU, IBTK / Fold change vs veh, IBTK / RFU, ESF1 / Fold change vs veh, ESF1 / Fold change vs veh, TMEM50B / RFU, TAOK1 / Fold change vs veh, TAOK1 / RFU, ACBD3 / Fold change vs veh, ACBD3 / RFU, TMA16 / Fold change vs veh, TMA16 / RFU, RWDD3 / Fold change vs veh, RWDD3 / RFU, BCAT1 / Fold change vs veh, BCAT1 / RFU, EDEM3 / Fold change vs veh, EDEM3 / RFU, TMEM33 / Fold change vs veh, TMEM33 / RFU, WDR75 / Fold change vs veh, WDR75 / RFU, AHCTF1 / Fold change vs veh, AHCTF1 / RFU, TFRC / Fold change vs veh, TFRC / RFU, ZDHHC17 / Fold change vs veh, ZDHHC17 / RFU, NOM1 / Fold change vs veh, NOM1 / RFU, ARL8B / Fold change vs veh, ARL8B / RFU, ZBTB11 / Fold change vs veh, ZBTB11 / RFU, TAMM41 / Fold change vs veh, TAMM41 / RFU, KIAA1704 /// LOC100996395 / Fold change vs veh, KIAA1704 /// LOC100996395 / RFU, ING1 / Fold change vs veh, ING1 / RFU, TRMT61B / Fold change vs veh, TRMT61B / RFU, FUBP3 / Fold change vs veh, FUBP3 / RFU, TP53 / Fold change vs veh, TP53 / RFU, TNKS2 / Fold change vs veh, TNKS2 / RFU, ZFP14 / Fold change vs veh, ZFP14 / RFU, ACTR2 / Fold change vs veh, ACTR2 / RFU, PPP3R1 / Fold change vs veh, PPP3R1 / RFU, PIK3R1 / Fold change vs veh, PIK3R1 / RFU, HNRNPA1 / Fold change vs veh, HNRNPA1 / RFU, RNF170 / Fold change vs veh, RNF170 / RFU, ZNF28 / Fold change vs veh, ZNF28 / RFU, RNGTT / Fold change vs veh, RNGTT / RFU, OGT / Fold change vs veh, OGT / RFU, BRD1 / Fold change vs veh, BRD1 / RFU, MARS / Fold change vs veh, MARS / RFU, ZNF655 / Fold change vs veh, ZNF655 / RFU, FAHD1 / Fold change vs veh, FAHD1 / RFU, BDP1 / Fold change vs veh, BDP1 / RFU, LRRCC1 / Fold change vs veh, LRRCC1 / RFU, ARID1A / Fold change vs veh, ARID1A / RFU, ZNF146 / Fold change vs veh, ZNF146 / RFU, ZNF330 / Fold change vs veh, ZNF330 / RFU, GPN3 / Fold change vs veh, GPN3 / RFU, C9orf123 / Fold change vs veh, C9orf123 / RFU, N4BP2L2 / Fold change vs veh, N4BP2L2 / RFU, ARFIP1 / Fold change vs veh, ARFIP1 / RFU, FAM179B / Fold change vs veh, FAM179B / RFU, BCL10 / Fold change vs veh, BCL10 / RFU, UHRF1BP1L / Fold change vs veh, UHRF1BP1L / RFU, BET1 / Fold change vs veh, BET1 / RFU, CNOT2 / Fold change vs veh, CNOT2 / RFU, ZNF268 / Fold change vs veh, ZNF268 / Fold change vs veh, ZNF507 / RFU, DGCR2 / Fold change vs veh, DGCR2 / RFU, WDSUB1 / Fold change vs veh, WDSUB1 / Fold change vs veh, HSP90B1 /// MIR3652 / RFU, ADSS / Fold change vs veh, ADSS / RFU, GK / Fold change vs veh, GK / RFU, ZNF148 / Fold change vs veh, ZNF148 / RFU, TAF9 / Fold change vs veh, TAF9 / RFU, SLC1A5 / Fold change vs veh, SLC1A5 / RFU, SLMO2 / Fold change vs veh, SLMO2 / RFU, ABCC4 / Fold change vs veh, ABCC4 / RFU, LOC101060439 /// RAP1B / Fold change vs veh, LOC101060439 /// RAP1B / RFU, RFX7 / Fold change vs veh, RFX7 / RFU, GTPBP10 / Fold change vs veh, GTPBP10 / RFU, CNEP1R1 / Fold change vs veh, CNEP1R1 / RFU, BIVM-ERCC5 /// ERCC5 / Fold change vs veh, BIVM-ERCC5 /// ERCC5 / RFU, ILF3 / Fold change vs veh, ILF3 / RFU 11762660_at / Fold change /veh 11762660_at / RFU VCAN (11757783_s_at) / Fold change /veh VCAN (11757783_s_at) / RFU DDX43 (11728927_at) / Fold change /veh DDX43 (11728927_at) / RFU KRT8 (11758188_x_at) / Fold change /veh KRT8 (11758188_x_at) / RFU NKD1 (11759106_at) / Fold change /veh NKD1 (11759106_at) / RFU SRD5A1 (11742802_a_at) / Fold change /veh SRD5A1 (11742802_a_at) / RFU TPSAB1 /// TPSB2 (11721975_s_at) / Fold change /veh TPSAB1 /// TPSB2 (11721975_s_at) / RFU GSTM3 (11746129_a_at) / Fold change /veh GSTM3 (11746129_a_at) / RFU IL23R (11737362_x_at) / Fold change /veh IL23R (11737362_x_at) / RFU TMEM51 (11727254_a_at) / Fold change /veh TMEM51 (11727254_a_at) / RFU PIWIL2 (11732686_x_at) / Fold change /veh PIWIL2 (11732686_x_at) / RFU ORM1 (11744905_x_at) / Fold change /veh ORM1 (11744905_x_at) / RFU CCDC152 (11743942_at) / Fold change /veh CCDC152 (11743942_at) / RFU ECM1 (11717891_a_at) / Fold change /veh ECM1 (11717891_a_at) / RFU IL23R (11748794_a_at) / Fold change /veh IL23R (11748794_a_at) / RFU TNFAIP8L3 (11732012_x_at) / Fold change /veh TNFAIP8L3 (11732012_x_at) / RFU MBOAT4 (11741988_at) / Fold change /veh MBOAT4 (11741988_at) / RFU 11764193_at / Fold change /veh 11764193_at / RFU TMEM53 (11763286_at) / Fold change /veh TMEM53 (11763286_at) / RFU MAGEB2 (11727129_at) / Fold change /veh MAGEB2 (11727129_at) / RFU TMEM200A (11744735_a_at) / Fold change /veh TMEM200A (11744735_a_at) / RFU CCDC152 (11751479_a_at) / Fold change /veh CCDC152 (11751479_a_at) / RFU FAM211A (11726209_a_at) / Fold change /veh FAM211A (11726209_a_at) / RFU RGS16 (11746705_a_at) / Fold change /veh RGS16 (11746705_a_at) / RFU VCAN (11755009_s_at) / Fold change /veh VCAN (11755009_s_at) / RFU RHOB (11743442_s_at) / Fold change /veh RHOB (11743442_s_at) / RFU RGS16 (11720943_a_at) / Fold change /veh RGS16 (11720943_a_at) / RFU RGS16 (11720944_at) / Fold change /veh RGS16 (11720944_at) / RFU, VPS4B / Fold change vs veh, VPS4B / RFU, CREB1 / Fold change vs veh, CREB1 / RFU, DNAJC13 / Fold change vs veh, DNAJC13 / RFU, GNAQ / Fold change vs veh, GNAQ / RFU, CDK5R1 / Fold change vs veh, CDK5R1 / RFU, ZRANB3 / Fold change vs veh, ZRANB3 / RFU, CUL4A / Fold change vs veh, CUL4A / RFU, CCNY / Fold change vs veh, CCNY / RFU, UFL1 / Fold change vs veh, UFL1 / RFU, COG3 / Fold change vs veh, COG3 / RFU, DIAPH2 / Fold change vs veh, DIAPH2 / RFU, SKA2 / Fold change vs veh, SKA2 / RFU, AFF3 / Fold change vs veh, AFF3 / RFU, LMF1 / Fold change vs veh, LMF1 / RFU, IPO11 / Fold change vs veh, IPO11 / RFU, DFFB / Fold change vs veh, DFFB / RFU, FOXP1 / Fold change vs veh, FOXP1 / RFU, CARD8 / Fold change vs veh, CARD8 / RFU, STRN3 / Fold change vs veh, STRN3 / RFU, ADK / Fold change vs veh, ADK / RFU, RASSF2 / Fold change vs veh, RASSF2 / RFU, WIPF1 / Fold change vs veh, WIPF1 / RFU, LARP1B / Fold change vs veh, LARP1B / RFU, RASA1 / Fold change vs veh, RASA1 / RFU, RB1 / Fold change vs veh, RB1 / RFU, PPFIA1 / Fold change vs veh, PPFIA1 / RFU, MAT2A / Fold change vs veh, MAT2A / RFU, CCT5 / Fold change vs veh, CCT5 / RFU, WDR92 / Fold change vs veh, WDR92 / RFU, CUX1 / Fold change vs veh, CUX1 / RFU, TTC7A / Fold change vs veh, TTC7A / RFU, TMEM135 / Fold change vs veh, TMEM135 / RFU, DEPTOR / Fold change vs veh, DEPTOR / RFU, CPM / Fold change vs veh, CPM / RFU, DNAJB6 / Fold change vs veh, DNAJB6 / RFU, CACNA2D3 / Fold change vs veh, CACNA2D3 / RFU, DTX4 / Fold change vs veh, DTX4 / RFU, TFCP2 / Fold change vs veh, TFCP2 / RFU, GMCL1 /// GMCL1P1 / Fold change vs veh, GMCL1 /// GMCL1P1 / RFU, AEBP2 / Fold change vs veh, AEBP2 / RFU, SNHG1 /// SNORD22 /// SNORD25 /// SNORD26 /// SNORD27 /// SNORD28 /// SNORD29 /// SNORD31 / Fold change vs veh, SNHG1 /// SNORD22 /// SNORD25 /// SNORD26 /// SNORD27 /// SNORD28 /// SNORD29 /// SNORD31 / Fold change (Aza/veh), C12orf56 (ProbeSet 11735607_a_at) / Fold change (ACY-1035/veh), C12orf56 (ProbeSet 11735607_a_at) / Fold change (Aza/veh), FGFR1OP (ProbeSet 11751329_s_at) / Fold change (ACY-1035/veh), FGFR1OP (ProbeSet 11751329_s_at) / Fold change (Aza/veh), VPS36 (ProbeSet 11739960_a_at) / Fold change (ACY-1035/veh), VPS36 (ProbeSet 11739960_a_at) / RFU SYPL1 (11715823_x_at) / Fold change /veh SYPL1 (11715823_x_at) / RFU IGFBP7 (11715501_s_at) / Fold change /veh IGFBP7 (11715501_s_at) / RFU REEP3 (11722064_at) / Fold change /veh REEP3 (11722064_at) / RFU IGLL1 (11728026_x_at) / Fold change /veh IGLL1 (11728026_x_at): dose or concentration left out as unconfirmed
Settings: ProbeSet 11723475_a_at; LIST B

Nc1ncn([C@@H]2O[C@H](CO)[C@@H](O)[C@H]2O)c(=O)n1 [azacitidine]
Fold change vs veh, TRMT61B: 0.91
